Experiment [1] concerns anti-HRP antibody, anti-hCG antibody, anti-CRP antibody, anti-HBsAg antibody. Briefly: One-step immunoassay on solid support, release of switching binder on target antigen binding (FIGS. 8A to 8D). Also on record: species or system rabbit, mouse, goat. The note with it: after treatment with target antigen (HRP, hCG, CRP, HBsAg); 10 or 20 μM switching binder; fluorescence. The procedure:
With reference to FIG. 8A, anti-HRP antibody was treated and fixed overnight on a solid support at a concentration of 1 μg/ml, and the switching binder 100 of SEQ ID NOs. 1 to 4 were each treated at a concentration of 10 μM (100 μl/well) for 2 hours. At this time, after measuring the fluorescence of the bottom, the antigen HRP as an analyte for an IgG antibody of rabbit was treated at a concentration of 10 μg/ml for 1 hour. With reference to FIG. 8B, anti-HCG antibody was treated and fixed overnight on a solid support at a concentration of 1 μg/ml, and the switching binder 100 of SEQ ID NOs. 1 to 4 were each treated at a concentration of 20 μM (100 μl/well) for 2 hours. At this time, after measuring the fluorescence of the bottom, the antigen HCG as an analyte for an IgG antibody of a mouse was treated at a concentration of 100 μg/ml for 2 hours.
With reference to FIG. 8C, anti-CRP antibody was treated and fixed overnight on a solid support at a concentration of 1 μg/ml, and the switching binder 100 of SEQ ID NOs. 1 to 4 were each treated at a concentration of 20 μM (100 μl/well) for 2 hours. At this time, after measuring the fluorescence of the bottom (A), the antigen […] as an analyte for an IgG antibody of rabbit was treated at a concentration of 10 μg/ml for 1 hour. […] At this time, after measuring the fluorescence of the bottom (A), the antigen HBsAg as an analyte for an IgG antibody of a goat was treated at a concentration of 10 μg/ml for 1 hour.
Referring to FIGS. 8A to 8D, the switching binder 100 was tested using the switching binder of SEQ ID NOs. […] The labeling reaction may be a fluorescence reaction. […]
Referring to FIGS. 8A to 8D, it can be seen that the remaining amount (B) of the switching binder 120 bound to the framework region (FR) was reduced compared to the amount (A) of the switching binder 110 bound to the antibody 10 in all of the switching binder of SEQ ID NO. […] In addition, it can be seen that the amount (C) of the switching binder 130 separated from the framework region (FR) is measured. […]
This is because the amount (A) of the switching binder 110 bound to the antibody 10 is the intensity of fluorescence observed on the surface of the support 30, but the amount (C) of the switching binder 130 separated from the framework region (FR) is the intensity of fluorescence observed in the solution phase. […] According to an embodiment of the present disclosure, as described above, it is possible to quantify the target antigen 20 by the difference between the amount of the switching binder 110 bound to the antibody 10 measured in the pretreatment step (S100) and the amount of the switching binder 120 in the remaining amount bound to the framework region (FR) in the assay step (S300). […]

The subject of experiment [2] is anti-influenza B antibody. Briefly: Bead-based antibody binding one-step immunoassay (FIGS. 9A and 9B). The conditions noted are these: influenza B versus CRP at 10 ng/mL; separated and remaining switching binder quantified.
The subject of experiment [3] is switching binder of SEQ ID NO. 1 (H1) / switching binder of SEQ ID NO. 4 (L2). Briefly: FRET test of mutual binding between switching binders H1 and L2 (FIG. 6E). From the text: 1 (H1) and the switching binder of SEQ ID NO. 4 […]. Through this, it can be confirmed that the switching binder of SEQ ID NO. 1 (H1) can interact with the LBR region of the light chain (VL), and the switching binder of SEQ ID NO. 4 (L2) can interact with the HBR region of the heavy chain (VH). Through this property, the switching binder 100 binds to the framework region (FR), and thus the same effect as the interaction between the framework regions (FR) can be obtained.

Experiment [4] deals with anti-HRP antibody / HRP. Briefly: Antigen-binding coefficient of the antibody in solution measured via isolated switching binder (FIGS. 10A to 10D). The conditions noted are these: target antigen HRP, anti-HRP antibody not immobilized; calculated from amount of isolated switching binder; read-out: antigen-binding coefficient (Kd) of the antibody in solution, measured using the switching binder. From the text: The pretreatment step (S100″) may include providing the switching binder 100 to an antibody 10 to obtain a mixed solution containing a first conjugate (b1) of the antibody 10 and the switching binder 100, and the switching binder 100 not bound to the antibody 10 (S110); and removing the switching binder 100 not bound to the antibody 10 from the mixed solution (S120). For example, the mixed solution passes through a desalting column to remove the unbound switching binder passing through the desalting column […], and only the first conjugate (b1) passing through the desalting column later can be obtained. The above-described method is exemplary, and various known techniques for separating the first conjugate and the switching binder 100 may be referred to.
Then, as the step of providing an analyte, in the antigen processing step (S200″), the step of separating the first conjugate (b1) from the framework regions (FR, FR) by binding the target antigen 20 to the antibody 10 may be performed. […]
Then, the assay step (S300″) may further include the steps of separating the second conjugate (b2) of the antibody 10 to which the switching binder 130 separated from the antibody 10 and the target antigen 20 are bound (S310); and quantifying the separated switching binder 130 (S320). […] Thereafter, only the separated switching binder 130 may be selectively obtained and quantified through a labeling reaction. At this time, as the concentration of the target antigen 20 increases, the amount of the switching binder 130 separated from the second conjugate (b2) increases, thereby increasing the fluorescence amount of the solution.
In an embodiment, in the assay step (S300″), a test kit that can measure the amount of the switching binder 130 separated according to the increase in the concentration of the target antigen 20 and measure the binding strength of the target antigen 20 to the antibody 10 can be provided. In order to measure the binding strength, the antigen-binding coefficient (Kd) of the antibody 10 may be measured. […]

Experiment [5] concerns switching binder of SEQ ID NO. 2 (H2) / switching binder of SEQ ID NO. 3 (L1). Briefly: FRET test of mutual binding between switching binders H2 and L1 (FIG. 5E). The text has this:
2 (H2) and the switching binder of SEQ ID NO. 3 (L1). Accordingly, it can be confirmed that the switching binder of SEQ ID NO. 2 […] can self-bind and interact with the LAR region of the light chain (VL), and the switching binder of SEQ ID NO. 3 (L1) can self-bind and interact with the HAR region of the heavy chain (VH). Through this, the switching binder 100 having an amino acid sequence extracted from the heavy chain (VH) can bind to the antigen-binding portion 15 including the framework region (FR) of the light chain (VL), and the switching binder 100 having an amino acid sequence extracted from the light chain (VL) can bind to the antigen-binding portion 15 including the framework region (FR) of the heavy chain (VH).

For experiment [6], the system named is anti-HRP antibody. Briefly: SPR analysis of switching binder binding to immobilized antibody (FIG. 7B). The note with it: 10 and 20 μM peptide. From the text:
Referring to FIG. 7B, in an embodiment, a result of a surface plasmon resonance (SPR) analysis may be confirmed. Surface Plasmon Resonance (SPR) uses a phenomenon that when a material binds to the surface of a metal thin film such as gold, the refractive index of the metal surface changes. When the light is irradiated, the concentration of the material bound to the metal surface can be measured by examining the resonance angle at which the SPR phenomenon occurs among the reflected light.
Specifically, in order to confirm the SPR signal result, the gold surface was treated overnight with 1 mM mercaptoundecanoic acid (MUA) and surface-modified prior to immobilization of the antibody 10. Carbodiimide/N-Hydroxysuccinimide (EDC/NHS, 0.4 M/0.1 M) was mixed in a 1:1 ratio and treated for 10 minutes to activate functional groups. […] The SPR signal can be measured as an average value by repeating the routine of measuring the SPR signal for 3 minutes while the solution is stopped after flowing 1% Tween-20 washing solution for 1 minute three times.
However, the embodiment is not limited to the embodiment of the present disclosure and may include any method capable of measuring the binding strength of the switching binder 100. […] As a result of peptide treatment at a low concentration of 10 μM, shown in the graph on the left (B1), the SPR signal was calculated as the peptide of SEQ ID NO. […]

pKd: −log10 of the molar value.

As to “SYWIHWVKQRPGQGLEWIGE [H1, SYWIHWVKQRPGQGLEWIGE]”, the “remaining amount (B) of switching binder bound to framework region compared to amount (A) bound to antibody” value in experiment [1] is given as “reduced”. Besides, the “bead-based one-step immunoassay feasibility” value in experiment [2] was “possible”. For the same sequence, the “FRET mutual binding between H1 and L2” value in experiment [3] is given as “mutual binding”.

Broadly, the pKd is the negative decadic logarithm of the Kd, by convention in mol/L. As to “TYLEWYPQKPGQSPKLLIYK [L1, TYLEWYPQKPGQSPKLLIYK]”, the “remaining amount (B) of switching binder bound to framework region compared to amount (A) bound to antibody” value in experiment [1] is “reduced”. Further, in experiment [2], the “bead-based one-step immunoassay feasibility” value was “possible”. In addition, in experiment [4], the pKd was 6.05. Further, the “FRET mutual binding between H2 and L1” value in experiment [5] is reported as “mutual binding”.

Regarding “VYYCAREPTGTGIYFDVWGK [H2, VYYCAREPTGTGIYFDVWGK]”, in experiment [1], the “remaining amount (B) of switching binder bound to framework region compared to amount (A) bound to antibody” value was “reduced”. Also, the pKd in experiment [4] is 5.54. Moreover, in experiment [5], the “FRET mutual binding between H2 and L1” value is “mutual binding”.

As to “VYYCFQGSHVPFTK [L2, V-Y-Y-C-F-Q-G-S-H-V-P-F-T-K]”, the “binding to the antibody by SPR” value in experiment [6] is “binds the most”. The “remaining amount (B) of switching binder bound to framework region compared to amount (A) bound to antibody” value in experiment [1] is on record as “reduced”. For the same sequence, the pKd in experiment [4] was 5.92. In addition, the “FRET mutual binding between H1 and L2” value in experiment [3] was “mutual binding”.

(Values after patent US20230073007A1, “SWITCHING BINDER, PREPARATION METHOD THEREFOR, AND PHARMACEUTICAL COMPOSITION, ASSAY KIT, AND ANTIGEN AND ANTIBODY ASSAY METHOD, EACH USING SAME” (OPTOLANE TECHNOLOGIES INC., priority 2019, published 2023).)
